From PMC11678782, “The Antioxidant and Anti-Inflammatory Activities of the Methanolic Extract, Fractions, and Isolated Compounds from Eriosema montanum Baker f. (Fabaceae)” (Molecules, 2024)
Converted amounts (≈) assume the structure as drawn. Each block holds one compound with its values, some of them ahead of it.

Columns and labels:
[1] = system: LPS-activated J774.A1 cells; set-up: method as in PMID 17637182; details: cited from earlier work
[2] = DPPH radical scavenging assay; details: 30 min, 517 nm
Method: (§1) Three in vitro antioxidant assays, namely, 2,2′-azinobis-(3-ethylbenzothiazoline-6-sulfonic acid (ABTS), 2,2′-diphenyl-1-picrylhydrazyl (DPPH), and ferric ion reducing antioxidant power (FRAP), were used to determine the antioxidant activity according to methods previously reported. Ascorbic acid (0 to 200 μg/mL) was used as positive control in these experiments, and Formula (1) below allowed us to evaluate the percentage of radical scavenging capacity. The inhibitory concentration (IC50) values were evaluated by plotting a nonlinear graph of percentage radical scavenging capacity versus logarithm of tested concentrations. Scavenging capacity (%) = [(A0 − A1)/A0] × 100(1) where A0 is absorbance of negative control, and A1 is absorbance of extract with ABTS^•+ radical cation.
To be able to determine the DPPH^• scavenging capacity of EMME, we performed a serial dilution of 40 μL of the sample (1 mg/mL) with methanol on a 96-well microtiter plate, with 160 μL of solution of DPPH^• thereafter (25 μg/mL). The incubation at 25 °C in the dark was performed after 30 min, with the absorbance values measured at 517 nm on a SpectraMax iD3 multi-mode microplate against a blank (extract plus methanol without DPPH^•). […]. Methanol with DPPH^• served as the negative control. Using Formula (1), the DPPH scavenging capability was calculated at the measured concentrations above, and as previously enumerated, the IC50 values were also calculated, as indicated in the previously described procedure.
(§2) The IC50 values were calculated for each biological experiment using the nonlinear regression curve of the % inhibitory activity versus the logarithm (log10) of the various tested concentrations using GraphPad Prism 6.0 software (GraphPad Software, Inc., San Diego, CA, USA). The data are shown as mean ⁱ SEM (standard error of the mean) values, and all biological experiments were conducted in triplicate (n = 3). The statistical analysis was conducted using GraphPad Prism 6.0 software (GraphPad Software, Inc., San Diego, CA, USA). One-way analysis of variance (ANOVA) was used to compare the data across the tested samples and/or controls, and Student–Newman–Keuls or Dunnett’s tests were then performed. A p-value of less than 0.05 indicated a significant difference in the results.

[3] = system: LPS-stimulated RAW 264.7 cells; assay: ROS production in LPS-stimulated RAW 264.7 cells (DCFH-DA); format: cell-based, murine; details: 25, 50, 100 µg/mL, 2 h pre-treatment, 200 ng/mL LPS 24 h
Method: For ROS production inhibition, on a black/clear bottom 96-well plate, RAW 264.7 cells were seeded at a density of 10,000 cells per well. The cells were then pre-treated with non-toxic quantities of EMME and genistin (5) at 25, 50, and 100 µg/mL for two hours and then exposed to 200 ng/mL of LPS for twenty-four hours under standard culture conditions. Thereafter, the cells were washed twice with PBS, followed by the addition of 100 µL of fresh FBS-free medium containing 10 µM of the fluorescent probe 2′,7′-dichlorodihydrofluorescein diacetate (DCFH-DA) (Sigma-Aldrich, Darmstadt, Germany). After 30 min of additional incubation under usual culture conditions, PBS was added to the plate in place of the fluorescent probe. The fluorescence of the cells was measured using a SpectraMax iD3 multi-mode microplate reader (Molecular Devices, San Jose, CA, USA) at 485 nm (excitation) and 535 nm (emission). The percentage of cells treated with DMSO 0.5% without LPS, known as the negative control, was used to express the intracellular ROS levels. Using an excitation/emission filter (480/535 nm) on a 40× objective, images were taken with a camera (Flexacam C1, Leica Microsystems, Wetzlar, Germany) attached to a fluorescence microscope (Leica Microsytems GmbH, Wetzlar, Germany).

[4] = ABTS radical scavenging assay; details: 5 min, 734 nm
Method: as §1
Specifically, 2.45 mM of potassium persulfate and 7 mM of ABTS solution were dissolved in methanol and combined to create the ABTS^•+ radical cation, which was stored at 25 °C for a minimum of 16 h. At 734 nm, the absorbance of the generated ABTS^•+ was measured using a SpectraMax iD3 multi-mode microplate reader (Molecular Devices, San Jose, CA, USA) and calibrated to 0.70 ± 0.02. After carefully diluting 40 μL of EMME (1 mg/mL) with methanol and adding 160 μL of (ABTS^•+) radical cation, the 96-well microtiter plate was left to sit at 25 °C in the dark for five minutes. Using a SpectraMax iD3 multi-mode microplate reader, the absorbance values were measured at 734 nm against the blank (extract plus methanol without ABTS^•+). A nonlinear curve representing the percentage of ABTS^•+ scavenging capacity vs. a logarithm of tested concentrations was then plotted to determine the inhibitory concentration (IC50) values.
as §2

[5] = Ferric reducing antioxidant power (FRAP) assay; details: relative to 200 µg/mL gallic acid, 700 nm
Method: as §1
The generally used and almost standard method for performing the FRAP test is that developed by Benzie and Strain [15]. Indeed, the antioxidant power is determined in a colorimetric reaction linked to redox in which an intense blue-colored ferroustripyridyltriazine (Fe^2+-TPTZ) complex is obtained via reduction at a low pH of ferrictripyridyltriazine (Fe^3+-TPTZ). The incubation of a quantity of 50 μL of EMME (1.56 to 200 μg/mL) or 200 μg/mL of gallic acid (Merck, Lethabong, South Africa) on a 96-well plate was carried out with 50 μL of 1% potassium ferricyanide (prepared in 0.2 M of sodium phosphate buffer, pH 6.6) for 30 min at 50 °C. Then, 50 μL of 10% trichloroacetic acid (TCA), 40 μL of distilled water, and 10 μL of 0.1% ferric chloride were added, respectively. The absorbance values were recorded on a blank (extract plus sodium phosphate buffer) at 700 nm on a SpectraMax iD3 multi-mode microplate reader (Molecular Devices, San Jose, CA, USA); the FRAP activity was indicated as inhibition percentage of 200 μg/mL of gallic acid.
as §2

[6] = system: LPS-stimulated RAW264.7 cells; set-up: method as in PMID 33202848, PMID 29471006; details: cited from earlier work
soybeans 15-LOX = biological target: T1, soybeans 15-LOX (Glycine max, UniProt P08170); assay: 15-lipoxygenase enzyme inhibitory assay (FOX); format: biochemical, soybean
T1 construct: purchased Merck, Darmstadt, Germany
T1 sequence (P08170 1-839): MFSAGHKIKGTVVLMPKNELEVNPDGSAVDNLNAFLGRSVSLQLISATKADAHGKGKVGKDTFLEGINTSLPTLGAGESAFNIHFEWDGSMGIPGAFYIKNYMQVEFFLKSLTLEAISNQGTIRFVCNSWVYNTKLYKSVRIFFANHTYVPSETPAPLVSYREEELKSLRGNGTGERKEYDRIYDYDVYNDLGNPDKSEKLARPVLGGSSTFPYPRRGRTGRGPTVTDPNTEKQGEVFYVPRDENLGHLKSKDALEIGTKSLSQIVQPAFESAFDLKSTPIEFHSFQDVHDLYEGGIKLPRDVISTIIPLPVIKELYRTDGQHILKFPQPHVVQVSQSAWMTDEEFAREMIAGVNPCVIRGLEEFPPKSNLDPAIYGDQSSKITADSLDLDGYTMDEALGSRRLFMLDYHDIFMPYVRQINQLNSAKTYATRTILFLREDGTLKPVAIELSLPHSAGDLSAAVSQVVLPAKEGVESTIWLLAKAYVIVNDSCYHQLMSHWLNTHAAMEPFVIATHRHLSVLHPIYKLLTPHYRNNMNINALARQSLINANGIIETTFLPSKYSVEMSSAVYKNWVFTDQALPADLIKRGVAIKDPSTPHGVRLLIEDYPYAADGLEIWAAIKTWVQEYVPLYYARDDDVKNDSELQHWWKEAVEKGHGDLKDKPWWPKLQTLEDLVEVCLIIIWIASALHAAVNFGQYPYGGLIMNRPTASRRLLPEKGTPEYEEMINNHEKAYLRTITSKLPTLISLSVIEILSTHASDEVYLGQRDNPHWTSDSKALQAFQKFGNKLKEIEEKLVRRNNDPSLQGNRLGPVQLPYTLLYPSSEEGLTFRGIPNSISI
Method: The method developed by Pinto et al. was used to determine the effect of the tested samples on 15-LOX inhibitory activity, with slight modifications to the 96-well microtitre plate format. Using 20 µL of tested samples at varying concentrations (3.90 to 500 µg/mL), the soybeans 15-LOX (Merck, Darmstadt, Germany) (40 µL, 200 UI/mL) were incubated at 25 °C for 5 min. The plate was then incubated at 25 °C for 20 min in the dark; after, 40 µL of linoleic acid (final concentration, 140 μM) produced in Tris-HCl buffer (50 mM, pH 7.4) was added. A total of 100 µL of the FOX reagent—sulfuric acid (30 mM), xylenol orange (100 μM), and ferrous II) sulfate (100 μM) mixed in methanol/water (9:1)—was added to terminate the test. A SpectraMax iD3 multi-mode microplate reader (Molecular Devices, San Jose, CA, USA) was used to measure the absorbance at 560 nm following 30 min of incubation at 25 °C in the dark. Gallic acid (0.78 to 100 µg/mL) was employed as the usual inhibitor of 15-LOX, while DMSO at 5% (v/v) served as the negative control. With the exception of adding the substrate after the FOX reagent, the blanks were prepared exactly like the tested samples. Formula (2) below was used to compute the 15-LOX inhibitory activity. 15 LOX inhibitory activity (%) = 100 − [(A0 − A1) − (A2 − A1)] × 100(2) where A0 is absorbance of test samples, A1 is absorbance of blank, and A2 is absorbance of negative control (DMSO 5%).
as §2

[7] = system: LPS-stimulated RAW 264.7 cells; assay: NO production inhibition in LPS-stimulated RAW 264.7 cells (Griess); format: cell-based, murine; details: Mus musculus, RAW264.7; RAW 264.7, 2 h pre-treatment, 500 ng/mL LPS 24 h
Method: […] in a humidified environment containing 5% CO2 and 95% air. For NO and ROS production inhibition assays, the cytotoxic effect of tested samples at 100 µg/mL after 24 h of exposure was initially measured on RAW 264.7 cells (10,000 cells per well) using the standard MTT assay. Then, for NO production inhibition assay, RAW 264.7 cells were pre-treated with tested samples at 100 µg/mL for 2 h followed by addition of culture medium containing 500 ng/mL of lipopolysaccharide (LPS) (Merck, Darmstadt, Germany). After 24 h of incubation under standard cell-culture conditions, NO released was measured in cell supernatants using the Griess reagent (Sigma Aldrich, Darmstadt, Germany), and a SpectraMax iD3 multi-mode microplate reader (Molecular Devices, San Jose, CA, USA) was used to capture the absorbance readings at 540 nm. The ability of each tested material to reduce nitric oxide synthesis by LPS-stimulated RAW 264.7 macrophages in comparison to the negative control (cells treated with DMSO at 0.5% and LPS without extract) was used to calculate the percentage of NO production inhibition.
as §2

[8] = system: prostaglandins, iNOS, pro-inflammatory cytokines, ROS, NF-κB signaling pathway; set-up: method as in PMID 35140617, PMID 32115816; details: down-regulation of prostaglandins; cited from earlier work

SMILES: O=c1cc(-c2ccc(O)cc2)oc2cc(O[C@@H]3O[C@H](CO)[C@@H](O)[C@H](O)[C@H]3O[C@@H]3OC[C@](O)(CO)[C@H]3O)cc(O)c12 [Apiin]
Inhibitory activity on NO production and iNOS expression [1]: significant inhibitory activity

IC50 DPPH [2]: 4.08 ± 1.04 µg/mL (≈ 23.2 µM)
IC50 ABTS [4]: 1.28 ± 0.81 µg/mL (≈ 7.27 µM)
IC50 FRAP [5]: 23.68 ± 2.89 µg/mL (≈ 134 µM)
SMILES: O=C1O[C@H]([C@@H](O)CO)C(O)=C1O [Ascorbic acid, reference compound]
Inhibition of LPS-induced ROS production [3]: significantly inhibit

SMILES: C[C@@H]1O[C@@H](O[C@H]2C(=O)c3c(O)cc(O)cc3O[C@@H]2c2ccc(O)c(O)c2)[C@H](O)[C@H](O)[C@H]1O [Astilbin]
Inhibition of IL-1β, IL-6, NO production and NF-κB-p65 expression [6]: significantly inhibiting

SMILES: O=C(O)c1cc(O)c(O)c(O)c1 [Gallic acid, reference compound]
IC50 (soybeans 15-LOX): 145 µM

IC50 [7]: 8.93 ± 0.4 µg/mL (≈ 29.5 µM)
SMILES: O=c1c(O)c(-c2ccc(O)c(O)c2)oc2cc(O)cc(O)c12 [Quercetin, reference compound]

SMILES: O=c1c(-c2ccc(O)cc2)coc2cc(O)cc(O)c12 [genistein]
Anti-inflammatory activities [8]: strong anti-inflammatory activities
